# Assay results as given in patent US8673892B2, “Phenyl bicyclic methyl azetidine derivatives as sphingosine-1 phosphate receptors modulators” (Allergan, Inc., priority 2011, dated 2014).
# pEC50: −log10 of the molar value.
# Target: T1, human S1P1 receptor (Homo sapiens, UniProt P21453)
# T1 construct: expressed in transfected cells; membranes used
# Assay: GTP γ35S binding assay for S1P1 activity
# Type: biochemical
# Settings: membranes of cells stably expressing the S1P1 receptor; agonist-induced GTP γ35S binding; read-out: EC50 at the S1P1 receptor from GTP γ35S
# Description: Compounds were synthesized and tested for S1P1 activity using the GTP γ^35S binding assay. These compounds may be assessed for their ability to activate or block activation of the human S1P1 receptor in cells stably expressing the S1P1 receptor.
# GTP γ^35S binding was measured in the medium containing (mM) HEPES 25, pH 7.4, MgCl2 10, NaCl 100, dithitothreitol 0.5, digitonin 0.003%, 0.2 nM GTP γ^35S, and 5 μg membrane protein in a volume of 150 μl. Test compounds were included in the concentration range from 0.08 to 5,000 nM unless indicated otherwise. Membranes were incubated with 100 μM 5′-adenylylimmidodiphosphate for 30 min, and subsequently with 10 μM GDP for 10 min on ice. Drug solutions and membrane were mixed, and then reactions were initiated by adding GTP γ^35S and continued for 30 min at 25° C. Reaction mixtures were filtered over Whatman GF/B filters under vacuum, and washed three times with 3 mL of ice-cold buffer (HEPES 25, pH7.4, MgCl2 10 and NaCl 100). Filters were dried and mixed with scintillant, and counted for ^35S activity using a β-counter. Agonist-induced GTP γ^35S binding was obtained by subtracting that in the absence of agonist. Binding data were analyzed using a non-linear regression method. In case of antagonist assay, the reaction mixture contained 10 nM […] in the presence of test antagonist at concentrations ranging from 0.08 to 5000 nM.
# T1 sequence (P21453 whole entry): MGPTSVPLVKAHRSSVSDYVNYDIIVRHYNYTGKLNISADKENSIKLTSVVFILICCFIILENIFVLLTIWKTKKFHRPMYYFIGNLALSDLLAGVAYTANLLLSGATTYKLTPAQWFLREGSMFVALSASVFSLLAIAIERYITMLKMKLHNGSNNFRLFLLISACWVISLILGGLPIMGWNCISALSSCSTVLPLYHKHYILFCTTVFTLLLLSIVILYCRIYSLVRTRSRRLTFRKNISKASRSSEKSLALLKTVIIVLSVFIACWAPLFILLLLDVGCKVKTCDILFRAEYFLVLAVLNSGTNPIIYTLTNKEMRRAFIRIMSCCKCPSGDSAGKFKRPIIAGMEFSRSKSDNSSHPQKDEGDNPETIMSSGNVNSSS
compound,measurement,value
"CCCCCCc1ccc(-c2ccc(CN3CC(C(=O)O)C3)c3ncccc23)cc1 [Compound 1, 1-{[5-(4-hexylphenyl)quinolin-8-yl]methyl}azetidine-3-carboxylic acid]",pEC50,5.81
